Results: patent publication US8865762B2, “Method for the treatment of bone diseases comprising colforsin daropate” (Korea Research Institute of Bioscience and Biotechnology, priority 2009, dated 2014)
Entries after “also recorded” stand apart in the source; their conditions may differ.

Legend:
[1] = test system: murine monocytic cell line, RAW264.7; assay: Cytotoxicity test of monocytes (CCK-8 kit); assay type: cell-based; details: RAW264.7, 0, 10, 20 and 30 μM, after 1, 2 and 4 days, FIG. 1, monohydrochloride
Method: The murine monocytic cell line, RAW264.7 (ATTC TIB-71) was cultured in a DMEM medium supplemented with 10% FBS, and the medium was replaced every other day. The cell culture reagents were purchased from Hyclone. When RAW264.7 cells reached 70% confluence, the collected cells were aliquotted into a 96-well plate at a density of 1×10^3/well, and cultured for 24 hours. Subsequently, the cells were treated with colforsin daropate at various concentrations (0, 10, 20 and 30 μM), and cultured for 96 hours. After 1, 2, and 4 days in culture, a cytotoxicity test was performed using the cells in each well and a CCK-8 kit (Dojindo, Japan).

[2] = test system: TRAP activity induced by RANKL in the monocytic cell line RAW264.7; assay: Osteoclast differentiation, TRAP staining and activity assay; assay type: cell-based, murine
Method: At this time, α-MEM containing 100 ng/ml RANKL (R&D systems) and 10% FBS was used as a cell suspension medium. After 24 hours, the cells were treated with colforsin daropate at various concentrations (0, 0.2, 1, 2, 10, and 20 μM). After 3 days, TRAP staining was performed using a leukocyte acid phosphatase kit (Sigma). The stained cells were first fixed in 10% formalin for 10 minutes, and then dehydrated in 95% ethanol, and dried well at room temperature. Subsequently, 100 μl of citrate buffer (50 mM, pH 4.6) containing 10 mM sodium tartrate and 5 mM p-nitrophenylphosphate was added to each well, and reacted for 20 to 30 minutes. Thereafter, the enzyme reaction mixtures were transferred into new 96-well plates, and the reaction was terminated using 100 μl of 0.1 N NaOH. Absorbance was measured at 405 nm. TRAP activity was presented as a % of control, and a significance test was performed by t-test at the same time (purmorphamine treatment p<0.01; colforsin daropate treatment p<0.001). Purmorphamine was used as a control compound.

[3] = test system: ALP activity in murine osteoblastic cell, MC3T3-E1 subclone 4; assay: Alkaline phosphatase (ALP) activity of osteoblast, MC3T3-E1; assay type: cell-based; set-up: osteoblast differentiation-related ALP activity compared with the control compound purmorphamine: dose or concentration left out as unconfirmed
Method: (§1) In order to examine the effect of colforsin daropate on the activity of ALP, of which activity and expression are known to be increased at an early stage of osteoblast differentiation, the following experiment was performed. A murine osteoblastic cell, MC3T3-E1 subclone 4 (ATCC CRL-2593) was treated with colforsin daropate. After 8 days, cells were lysed using a lysis buffer (10 mM Tris-HCl, pH 7.5, 0.5 mM MgCl2, 0.1% Triton X-100) at room temperature for 30 minutes, and centrifuged at 12,000 rpm and 4° C. for 20 minutes. Next, […] in the obtained supernatant using a BCA kit (Bio-Rad), and its activity was measured using a LabAssay ALP kit (Wako, Japan). In this regard, the measured activity was presented as a % of the control, and a significance test was performed by t-test (colforsin daropate treatment, p<0.05; purmorphamine treatment as control, p<0.05). The same experiment was performed using multipotent C3H10T1/2 cells (cells can differentiate toward various lineages, including osteocytes).

[4] = test system: ALP activity in multipotent C3H10T1/2 cells; assay: Alkaline phosphatase (ALP) activity, C3H10T1/2; assay type: cell-based; details: FIG. 3B
Method: as §1, with “A” for “In order to examine the effect of colforsin daropate on the activity of ALP, of which activity and expression are known to be increased at an early stage of osteoblast differentiation, the following experiment was performed. A”

[5] = test system: murine osteoblastic cell, MC3T3-E1 subclone 4; assay: Cell proliferation of osteoblastic cells; assay type: cell-based
[6] = test system: ovariectomy-induced bone loss; assay: Bone density-improving effect in ovariectomy-induced osteoporosis model (micro-CT); assay type: in vivo, DDY female mice; details: ovariectomized mice, p.o. 5 mg/kg or 10 mg/kg once a day for 4 weeks, FIG. 4, monohydrochloride
Method: Thus, most studies are performed in animals. Ovariectomized mice are frequently used as a model for postmenopausal osteoporosis. Ovariectomized mice and early postmenopausal women share many similar characteristics, and thus ovariectomized mice have been commonly used in the studies of osteoporosis therapeutic agents. The present inventors performed ovariectomies on 5-week-old DDY female mice. The mice were anesthetized by intraperitoneal injection of 25 mg/kg of pentobarbital sodium (JW Pharmaceutical Corp). The abdomen of each mouse was shaved, and the surgical site was cleansed with antiseptics to perform ovariectomy. A 1.5 cm abdominal incision was made through the skin, muscle, and peritoneum to expose the ovary. The ovary was dissected out, and the peritoneum, muscle, and skin were sutured. As a control group, a sham ovariectomy was performed to the peritoneum identically, but the ovaries remained intact. The mouse models having ovariectomy-induced bone loss were orally administered (p.o.) with the colforsin compound at the concentrations of 5 mg/kg or 10 mg/kg once a day for 4 weeks. The effects were examined using a high resolution in-vivo micro-CT system (explore Locus scanner, GE Health Care, USA) to analyze the bone density.

C=C[C@@]1(C)CC(=O)[C@]2(O)[C@@]3(C)[C@@H](O)CCC(C)(C)[C@@H]3[C@H](OC(=O)CCN(C)C)[C@H](OC(C)=O)[C@@]2(C)O1.Cl [colforsin daropate]
cytotoxicity [1]: no cytotoxicity; also recorded: without cytotoxicity
TRAP activity induced by RANKL ([2]; RAW264.7, 100 ng/ml RANKL, 0.2-20 μM, 3 days, % of control, FIG. 2): inhibited TRAP activity induced by RANKL in the monocytic cell line RAW264.7 in a concentration-dependent manner
osteoclast differentiation ([2]; RAW264.7 with RANKL, FIGS. 1 and 2): efficacy of inhibiting osteoclast differentiation
ALP activity ([3]; MC3T3-E1 subclone 4, after 8 days, % of control, FIG. 3A): remarkably increased
osteoblast differentiation-related ALP activity compared with the control compound purmorphamine ([3]; versus purmorphamine): more increased
ALP activity [4]: also remarkably increased
cell proliferation [5]: did not affect cell proliferation
bone density / ovariectomy-induced bone loss [6]: remarkably increased; also recorded: remarkably improved
